According to ChEMBL document CHEMBL1129003, “Cycloleonuripeptides A, B and C, three new proline-rich cyclic nonapeptides from Leonurus heterophyllus” (Bioorg Med Chem Lett, 1996):
Values after ≈ are worked out from the molar mass of the structure shown.

Test system: P388
Assay: Compound was evaluated for the growth inhibitory activity against p-388 lymphocytic leukemia cells.
Format: functional, cell-based, Mus musculus

| Compound | IC50 (p388) | IC50 (Mus musculus, P388, read-out: IC50) |
| --- | --- | --- |
| CC[C@@H](C)[C@H]1NC(=O)[C@@H](CC[S+](C)[O-])NC(=O)[C@H]2CCCN2C(=O)[C@H]2CCCN2C(=O)[C@@H](Cc2ccc(O)cc2)NC(=O)[C@H]2CCCN2C(=O)[C@H]2CCCN2C(=O)[C@H]2CCCN2C(=O)CNC1=O (single isomer, unassigned; isomer 1) | 6 µg/mL (≈ 6.21 µM) |  |
| CC[C@@H](C)[C@H]1NC(=O)[C@@H](CC[S+](C)[O-])NC(=O)[C@H]2CCCN2C(=O)[C@H]2CCCN2C(=O)[C@@H](Cc2ccc(O)cc2)NC(=O)[C@H]2CCCN2C(=O)[C@H]2CCCN2C(=O)[C@H]2CCCN2C(=O)CNC1=O (single isomer, unassigned; isomer 2) |  | 3.7 µg/mL (≈ 3.83 µM) |
